# In patent US20260183392A1, “METHODS AND KITS FOR DNA EDITING AND TREATING, AMELIORATING AND/OR PREVENTING CANCER” (FC IP Holdings, LLC, priority 2022, published 2026):
# Experiments:
# human B2M locus = assay: Screen of crRNA for Cpf1 at human B2M locus (cleavage efficiency)
# [1] = tested on: RAB11A locus and TRAC locus in human primary T cells; assay: GFP reporter knock-in at RAB11A or TRAC locus in human primary T cells; type: cell-based; settings: 1 μM for 24 hours vs DMSO; cssDNA donors; Day 7
# Experimental: FIGS. 5A-5D: Innate immune response in primary T cells, in accordance with some embodiments. FIG. 5A: Schematic diagram of the GFP reporter cssDNA targeting RAB11A locus and TRAC locus (Upper). GFP reporter knock-in efficiency with cssDNA donor templates in human primary T cells. Immediately after electroporation, cells were treated with either DMSO or 1 μM M-3814 for 24 hours. The knock-in efficiency was examined on Day 7 post electroporation. FIG. 5B. Secreted IFN-γ and TNF-α cytokines levels in cultured primary T medium after electroporation with buffer, dsDNA, cssDNA or mRNA molecules. Conditioned media were collected for cytokine analysis using the Ella immunoassay platform with selected panels. FIGS. 5C-5D: Gene set enrichment analysis (GSEA) enrichment analysis of interferon gamma response genes on the differential expression genes (DEG) of from the dsDNA or cssDNA treated primary T cells. […]
# Genetically engineered T cell immunotherapies have provided remarkable clinical success to treat B cell acute lymphoblastic leukemia and have the potential to provide therapeutic benefit for numerous other cancers, infectious diseases, and autoimmunity. […] Primary T cells were co-electroplated with respective RNPs, and knock-in efficiency was determined on Day 7 post electroporation by GFP^+ cell percentage using flow cytometry. […]
# [2] = tested on: TRAC locus in primary T cells; assay: Anti-CD19xCD22 CAR knock-in at TRAC locus in primary T cells (Protein L, flow cytometry); type: cell-based, human; settings: 2 μg of cssDNA plus 1 μM M-3814; Day 7
# Description: FIGS. 7A-7I: CAR-T cell engineering with cssDNA, in accordance with some embodiments. FIG. 7A: Schematic diagram of nonviral CAR-T cell engineering process. Pan T cells are isolated from peripheral blood and activated on day 0 with anti-CD3/anti-CD28 TransAct. Cells are electroporated using the Lonza nucleofector on day 2 with Cas9 RNPs+cssDNA HDR donor templates and then expanded for a total of 7-10 days. FIG. 7B: Representative day 7 flow cytometry graphs showing CAR knock-in for Mock (un-engineered) and cssDNA-engineered T cells with DMSO or 1 μM M-3814 treatments. FIG. 7C: Representative day 7 flow plots and quantifications of CAR knock-in for mock (un-engineered), cssDNA- or AAV6-engineered T cells. Cells were treated with 1 μM M-3814 for 1 day immediately after electroporation. FIG. 7D: Expansion ability of engineered CAR-T cells. FIG. 7E: In vitro killing of NALM6 acute lymphoblastic leukemia cell line with cssDNA-, AAV6-engineered CAR-T cells in comparison to unmodified T cells from same blood donors after 24 hours of co-culture. The in vitro killing measured by live cell imaging using IncuCyte® live cell imaging system. […] FIG. 7G: the data of FIG. 7F, expressed as a bar chart. […] I. FIG. 7I, Tumor burden shown as bioluminescent signal quantified per animal every week over a 21-day period. n=5 mice per group. […]
# iPSC = assay: Cell viability / cell health of engineered iPSC; type: cell-based
# Description: FIGS. 3A-3H: induced pluripotent stem cells (iPSC) engineering according to some embodiments. FIG. 3A: GFP knock-in efficiency (on Day 7) at RAB11A locus in iPSC using cssDNA or dsDNA as donor templates. FIG. 3B: Cell viability of cssDNA- and dsDNA-engineered iPSC as measured on Day 3. FIG. 3C: Does-dependent GFP reporter knock-in using GFP reporter cssDNA targeting RAB11A or B2M locus. FIG. 3D: GFP fluorescence and phase contrast imaging of representative engineered iPSC colony. FIG. 3E: Schematic diagram of cssDNA donor templates for multiplexed reporter gene knock-in at RAB11A and B2M loci. FIG. 3F: Dual knock-in of mCherry and GFP report genes at the same RAB11A locus. FIG. 3G: Dual knock-in of mCherry and GFP report genes at RAB11A locus and B2M locus, respectively. […] GFP knock-in efficiency was assessed on Day 7 post electroporation by flow cytometry. […]
# The present study next evaluated small-molecule inhibitors that have been reported to enhance knock-in efficiency, including the DNA-dependent protein kinase (DNA-PK) inhibitor M-3814 and “Alt-R HDR enhancer 2” (HDRe.v2), which is described as a nonhomologous end joining (NHEJ) inhibitor (Kath et al., Mol Ther Methods Clin Dev. 2022 April 12:25:311-330; Shy et al., Nat Biotechnol. 2023 April; 41 (4): 521-531; and Tatiossian et al., Mol Ther. 2021 Mar. 3; 29 (3): 1057-1069). […]
Compound,cleavage efficiency (human B2M locus),increase of knock-in efficiency [1],knock-in efficiency (percentage of CAR+ cells) [2] [%],live cell counts (iPSC; at the chosen concentrations),"reduction in cell viability (iPSC; higher doses, day 4 post-electroporation)"
Cpf1-crRNA: crRNA for Cpf1 at human B2M locus identified by screening (guide AGUGGGGGUGAAUUCAGUGU; chemistry not fully specified),over 95%,–,–,–,–
COc1ccc([C@@H](O)c2cc(-c3ncnc4cc(N5CCOCC5)ccc34)c(F)cc2Cl)nn1 [M-3814],–,60-150%,56.3,generally unaffected,roughly 38%
